Test results taken from patent US20080194606A1, “Pyrazolyl-Amino-Substituted Pyrimidines and Their Use in the Treatment of Cancer” (ASTRAZENECA, priority 2005, published 2008).

target: T1, human Trk A kinase (Homo sapiens, UniProt P04629); assay: Trk A Assay (Alphascreen kinase assay); format: biochemical; conditions: 70 μM ATP, 20 minutes, room temperature, read-out: IC50 (Trk inhibitory activity)
T1 construct: HIS; made in house; host or cells: SF9 insect cells
Protocol: Trk A kinase activity was measured for its ability to phosphorylate synthetic tyrosine residues within a generic polypeptide substrate using an Amplified Luminescent Proximity Assay (Alphascreen) technology (PerkinElmer, 549 Albany Street, Boston, Mass.).
To measure Trk A kinase activity, the intracellular domain of a HIS-tagged human Trk A kinase (amino acids 442-796 of Trk A, Swiss-Prot Primary Accession Number P04629) was expressed in SF9 cells and purified using standard nickel column chromatography. After incubation of the kinase with a biotinylated substrate and adenosine triphosphate (ATP) for 20 minutes at room temperature, the kinase reaction was stopped by the addition of 30 mM ethylenediaminetetraacetic acid (EDTA). The reaction was performed in 384 well microtitre plates and the reaction products were detected with the addition of strepavidin coated Donor Beads and phosphotyrosine-specific antibodies coated Acceptor Beads using the EnVision Multilabel Plate Reader after an overnight incubation at room temperature.

T1 sequence (P04629 442-796): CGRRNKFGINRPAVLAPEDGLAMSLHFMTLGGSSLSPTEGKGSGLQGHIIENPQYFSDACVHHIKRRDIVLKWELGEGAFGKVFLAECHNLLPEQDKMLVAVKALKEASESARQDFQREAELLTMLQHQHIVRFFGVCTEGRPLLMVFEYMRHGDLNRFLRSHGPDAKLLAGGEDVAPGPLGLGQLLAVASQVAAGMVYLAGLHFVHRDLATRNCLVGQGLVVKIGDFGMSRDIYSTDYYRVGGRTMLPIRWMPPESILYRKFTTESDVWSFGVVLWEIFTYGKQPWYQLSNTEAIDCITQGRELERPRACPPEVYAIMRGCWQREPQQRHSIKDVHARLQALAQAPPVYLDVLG

Compound	IC50 [nM]
C[C@H](Nc1nc(Nc2cc(C3CC3)[nH]n2)ncc1C#N)c1ccc(F)cc1 [Example 4, 2-[(5-Cyclopropyl-1H-pyrazol-3-yl)amino]-4-{[(1S)-1-(4-fluorophenyl)ethyl]amino}pyrimidine-5-carbonitrile]	36
Cc1cnc(Nc2cc(C3CC3)[nH]n2)nc1N[C@@H](CO)c1ccc(F)cc1 [Example 5, (2R)-2-({2-[(5-Cyclopropyl-1H-pyrazol-3-yl)amino]-5-methylpyrimidin-4-yl}amino)-2-(4-fluorophenyl)ethanol]	106
Cc1cc(Nc2ncc(Cl)c(N[C@@H](CO)c3ccc(F)cc3)n2)n[nH]1 [Example 7, (2R)-2-({5-Chloro-2-[(5-methyl-1H-pyrazol-3-yl)amino]pyrimidin-4-yl}amino)-2-(4-fluorophenyl)ethanol]	3940
